This note sets out measurements from patent US20250213533A1 (GH RESEARCH IRELAND LIMITED, priority 2022, published 2025).

Series [1] relates to Salmonella typhimurium (TA98, TA100, TA1535 and TA1537). The experiment in a line: Bacterial mutation test, histidine-requiring strains. It is filed as cell-based. To be noted: up to 5000 μg/plate, absence and presence of rat liver S-9. On the procedure:
(§1) These conditions included treatments at concentrations up to 5000 μg/plate (the maximum recommended concentration according to current regulatory guidelines), in the absence and in the presence of a rat liver metabolic activation system (S-9).

In a further series the target is T1, 5-HT1A receptors (Homo sapiens, UniProt P08908).
T1 construct: 5-HT1A and 5-HT2A receptors in post-mortem human brain tissue from the hippocampus and frontal cortex, respectively; tissue Edinburgh Sudden Death Brain Bank; host or cells: post-mortem human hippocampus membranes
T1 sequence (P08908 1-422): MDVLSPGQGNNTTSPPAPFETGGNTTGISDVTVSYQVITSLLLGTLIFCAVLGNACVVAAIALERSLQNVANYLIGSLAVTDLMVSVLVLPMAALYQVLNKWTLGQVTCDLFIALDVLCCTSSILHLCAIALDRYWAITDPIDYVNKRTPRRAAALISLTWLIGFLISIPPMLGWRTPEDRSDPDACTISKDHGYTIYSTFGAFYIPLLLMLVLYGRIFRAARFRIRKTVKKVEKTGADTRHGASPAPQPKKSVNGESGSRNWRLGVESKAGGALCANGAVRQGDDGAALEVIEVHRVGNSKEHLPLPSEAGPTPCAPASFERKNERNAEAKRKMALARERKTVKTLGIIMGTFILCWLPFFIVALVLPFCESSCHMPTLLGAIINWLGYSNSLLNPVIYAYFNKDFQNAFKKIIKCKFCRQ
As to the kind of experiment: Radioligand binding ([3H]8-OH-DPAT) to 5-HT1A receptors in post-mortem human hippocampus membranes.

Series [2] has as its system Escherichia coli (WP2 uvrA pKM101). The experiment in a line: Bacterial mutation test, tryptophan-requiring strain. It is filed as cell-based. As to conditions: up to 5000 μg/plate, absence and presence of rat liver S-9. The procedure: as §1
In the next series the target is T2, 5-HT2A receptors (Homo sapiens, UniProt P28223).
T2 construct: 5-HT1A and 5-HT2A receptors in post-mortem human brain tissue from the hippocampus and frontal cortex, respectively; tissue Edinburgh Sudden Death Brain Bank; host or cells: post-mortem human frontal cortex membranes
As to the kind of experiment: Radioligand binding ([3H]MDL-100,907) to 5-HT2A receptors in post-mortem human frontal cortex membranes.

T2 sequence (P28223 whole entry): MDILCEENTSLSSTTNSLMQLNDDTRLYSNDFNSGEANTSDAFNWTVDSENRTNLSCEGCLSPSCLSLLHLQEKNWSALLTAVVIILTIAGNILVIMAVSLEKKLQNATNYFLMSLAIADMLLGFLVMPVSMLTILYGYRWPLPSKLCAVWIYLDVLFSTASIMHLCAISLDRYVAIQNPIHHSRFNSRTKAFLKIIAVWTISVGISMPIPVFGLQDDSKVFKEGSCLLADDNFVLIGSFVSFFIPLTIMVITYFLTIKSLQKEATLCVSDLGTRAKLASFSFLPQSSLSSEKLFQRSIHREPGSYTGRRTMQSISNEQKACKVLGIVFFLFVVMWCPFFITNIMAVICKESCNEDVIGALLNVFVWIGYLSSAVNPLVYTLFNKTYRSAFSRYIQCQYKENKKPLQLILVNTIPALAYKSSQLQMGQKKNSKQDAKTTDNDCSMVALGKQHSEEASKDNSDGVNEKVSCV

As to `COc1ccc2[nH]cc(CCN(C)C)c2c1` [5-MeO-DMT], the induction of mutation result in series [1] and in series [2] was “did not induce mutation” throughout. The “affinity for 5-HT1A receptors (in words)” value on 5-HT1A receptors is listed as “high affinity”. The “affinity for 5-HT2A receptors (in words)” value at 5-HT2A receptors is “comparatively weak affinity”.
